# Test results: patent publication US11254958B1, “Metabolic engineering of E coli with thio-phosphate” (priority 2018, dated 2022)
# Values joined by “and” are separate entries in the source; they are usually repeats but may differ in a detail not shown here. Equal values may be shown once.
# Test system: E. coli K-12
# Test: RNA seq analysis of total RNA (FPKM)
# Type: cell-based
# Parameters: hisA transcript elevation / FabB transcript elevation / TesA transcript elevation / FabD transcript elevation / FabH transcript elevation / ftsI transcript elevation / idtC transcript elevation / idtB transcript elevation: unit not given here
# Protocol: E coli K12 bacteria were grown in high citrate minimal media with 5.4 g/L of thiophosphate or 2.4 g/L of Na2HPO4 for up to 12 hrs. The use of high citrate media was chosen to help lower the total amount of thiophosphate needed for growth when compared to regular M9 media (1). The media is prepared as follows: thiophosphate, 5.4 g/L; KCL 1.5 g/L; (NH4)2SO4, 2 g/L; sodium citrate 2H2O, 10 g/L. Adjust the pH to 7.5 and sterile filter the solution. Then add the following: MgSO4-7H2O, 0.2 g/L (sterilized separately as a conc. solution); glucose, 2 g/L sterilized separately by filtration). Glucose can also be sterilized by autoclaving separately. CaCl2 (11 mg/L) is also be added as needed.
# For RNA seq analysis the RNA library was prepared using Illumina's TruSeq Stranded mRNA library prep (Illumina, 2010) without selection. The sequencing platform was HiSeq 2500 with a read format of PE 2×150. The coverage was at least 40 million per sample without rRNA depletion. A custom software build (Omegabioservice) of rRNA and tRNA sequences for reference mapping was used to more rapidly map rRNA sequences and avoid compression.
# To get some idea of the impact of RNA stabilization via thiophosphate on specific mRNAs, RNA seq results were analyzed as FPKM (fragments per kilobase pair million) out of all reads including rRNA. This study was designed to give an absolute comparison rather than a relative comparison of transcript levels in total RNA. For control cells a total of 43 million reads of 150 bp in length were analyzed while 73.9 million reads were used in thiophosphate treated samples. The reads were mapped to a reference genome, E. coli K-12 substr. MG1655. One of the first things noticed was that many genes were not detected in both treated and control samples. Some of these absences were undoubtedly due to the low coverage resulting from the presence of numerous ribosomal RNA sequences in the preparations. However, even some transcripts readily detected by microarray analysis were not present. Other transcripts were not assessed due to their high copy number and the need for protracted computational time to quantitate. The second thing that was most obvious when comparing the two samples was there were many changes both positive and negative in the levels of transcripts for different genes. The results pointed to significant transcriptional changes induced secondarily via the general stabilization of RNA in vivo with thiophosphate.
structure (smiles),measurement,setting,value
OP(O)(O)=S [thio-phosphate],maximum decrease observed,,1550 ×
same,"median fold change, transcripts for 18 of the most abundant proteins",,1.55 × fold
same,median fold decrease of decreased genes,,2.4
same,median fold increase of increased genes,,2.75
same,transcript level of the 2 out of 18 abundant-protein genes showing reduction,,80 % of normal
same,genes expressed at low levels showing negative fold changes in mRNA,12 genes expressed at low levels,58%
same,"transcripts showing negative fold changes, average stability mRNA class","33 mRNAs, half-lives between 5-7 mins, platform not given",30%
same,"transcripts showing negative fold changes, unstable mRNA class","33 mRNAs, half-lives of 3 mins or less, platform not given",36%
same,"transcripts showing negative fold changes, stable mRNA class","33 mRNAs, half-lives of 11 mins or more, platform not given",36%
same,fold increase in total FPKM counts,"4,311 E. coli genes, vs controls",1.37 × fold
same,FabB transcript elevation,RNA seq,98
same,FabD transcript elevation,RNA seq,3.1
same,FabH transcript elevation,RNA seq,10.5
same,Leu A transcript fold reduction,RNA seq,~500 × fold
same,Leu C transcript fold reduction,RNA seq,~500 × fold
same,Leu D transcript fold reduction,RNA seq,~500 × fold
same,TesA transcript elevation,RNA seq,3.5
same,accA transcript elevation,RNA seq,19.8 ×
same,accC transcript elevation,RNA seq,6.2 ×
same,accD transcript elevation,RNA seq,3.39 × and 3.4 ×
same,adk transcript fold elevation,RNA seq,3.4 × fold
same,aidB transcript fold elevation,RNA seq,4-6 × fold
same,bacA transcript elevation,RNA seq,12 ×
same,cysK transcript reduction,RNA seq,SOX
same,cysM transcript reduction,RNA seq,292 ×
same,ddlB transcript increase,RNA seq,30 ×
same,dusB transcript fold elevation,RNA seq,1.18
same,dxs transcript fold increase,RNA seq,101
same,hisA transcript elevation,RNA seq,6.2
same,hisB transcript elevation,RNA seq,162 ×
same,hisC transcript elevation,RNA seq,117 ×
same,hisD transcript elevation,RNA seq,10.9 ×
same,hisG transcript elevation,RNA seq,4.6 ×
same,hisH transcript elevation,RNA seq,28 ×
same,hisI transcript elevation,RNA seq,5 ×
same,idi transcript fold increase,RNA seq,3.57
same,infB transcript fold elevation,RNA seq,3 × fold
same,ispA transcript elevation,RNA seq,154 ×
same,ispD transcript fold increase,RNA seq,2
same,ispE transcript fold increase,RNA seq,1.8
same,ispF transcript fold increase,RNA seq,2.6
same,ispH transcript fold increase,RNA seq,2.2
same,katE transcript fold elevation,RNA seq,4-6 × fold
same,murC transcript increase,RNA seq,26 ×
same,murD transcript increase,RNA seq,144 ×
same,murE transcript increase,RNA seq,152 ×
same,murF transcript increase,RNA seq,250 ×
same,murG transcript increase,RNA seq,199 ×
same,otsA transcript fold elevation,RNA seq,4-6 × fold
same,prsA transcript elevation,RNA seq,< 2 ×
same,pyrG transcript fold elevation,RNA seq,2.1 × fold
same,pyrH transcript fold elevation,RNA seq,3.5 × fold
same,rpoS transcript fold elevation,RNA seq,2.3 × fold
same,rsfs transcript fold decrease,RNA seq,19 × fold
same,trpA transcript elevation,RNA seq,1049 ×
same,trpB transcript elevation,RNA seq,1955 ×
same,trpC transcript elevation,RNA seq,606 ×
same,trpD transcript elevation,RNA seq,443 ×
same,trpE transcript elevation,RNA seq,541 ×
same,tryD transcript elevation,RNA seq,443 ×
same,ybaY transcript fold elevation,RNA seq,4-6 × fold
same,ycih transcript fold elevation,RNA seq,8 × fold
same,yqgf transcript elevation,RNA seq,4.64 ×
same,ftsI transcript elevation,RNA seq (value in parentheses),109
same,idtB transcript elevation,RNA seq (value in parentheses),164
same,idtC transcript elevation,RNA seq (value in parentheses),3.6
same,tRNA synthetases average increase,"RNA seq, 13 tRNA synthetases detected",11.7 × fold
same,CspA transcript fold increase,"RNA seq, vs control",1.6 × fold
same,nusA transcript fold increase,"RNA seq, vs control",3 × fold
same,average fold decrease of decreased genes,SD 93,20.4
same,average fold increase of increased genes,SD 291,44 × fold
same,fold increase in mRNA or non-ribosomal RNA,after correcting for expected control reading of 82% for rRNA,2.75 × fold
same,fraction of reads that were rRNA,custom build of E. coli rRNA sequences,68.7%
same,"median positive fold change, average mRNA class",platform not given,2.6 ×
same,"median positive fold change, stable mRNA class",platform not given,2.7 ×
same,"median positive fold change, unstable mRNA class",platform not given,1.6 ×
same,"ribD, ribB, ribE and ribF gene transcripts",platform not given,did not appear to be significantly elevated
same,Nlpl fold decrease,"printed as protein, platform not given",32 × fold
same,cdsA mRNA increase,value in parentheses (RNA seq),21 ×
